Laboratory results reported in patent publication US20160083391A1, “TRICYCLIC PIPERAZINE DERIVATIVE” (Sunovion Pharmaceuticals Inc., priority 2014, published 2016).

Each molecule was assayed on PDE1 (assay: In vitro HTRF PDE1 inhibition assay). Conditions: HTRF cGMP assay, 100 nM cyclic GMP, PDE (1A3, 1B or 1C) with calmodulin, 45 minutes at 37° C.; isoform of the tabulated values not stated.
Type: biochemical
In short: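 HTRF cGMP competition assay: PDE1A3, 1B or 1C with calmodulin acting on 100 nM cGMP in 1% DMSO, pH 7.4 buffer with Ca2+ and Mg2+, 45 min at 37 °C. Remaining cGMP detected with d2-cGMP and anti-cGMP cryptate (665/615 nm); IC50 reported as banded categories.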

SMILES	IC50 [µM]
CC(C)c1nn(C)c2c(=O)n3c(nc12)C(Cc1ccccc1)N(Cc1ccccc1)CC3 (racemic) [Compound I-48, (±)-5,6-Dibenzyl-3-isopropyl-1-methyl-5,6,7,8-tetrahydropyrazino[1,2-a]pyrazolo[4,3-d]pyrimidin-10(1H)-one]	> 10
CC(C)(C)n1ncc2c(=O)n3c(nc21)CN(c1ccc(Cl)cc1)CC3 [Compound I-247, 1-(tert-Butyl)-8-(4-chlorophenyl)-6,7,8,9-tetrahydropyrazino[1,2-a]pyrazolo[3,4-d]pyrimidin-4(1H)-one]	1 to 10
Cc1cnc(CN2CCn3c(nc4c(cnn4C4CCCC4)c3=O)C2)nc1 [Compound I-199, 1-Cyclopentyl-8-((5-methylpyrimidin-2-yl)methyl)-6,7,8,9-tetrahydropyrazino[1,2-a]pyrazolo[3,4-d]pyrimidin-4(1H)-one]	1 to 10
COc1cccc(N2CCn3c(nc4c(cnn4C4CCCC4)c3=O)C2)c1 [Compound I-98, 1-Cyclopentyl-8-(3-methoxyphenyl)-6,7,8,9-tetrahydropyrazino[1,2-a]pyrazolo[3,4-d]pyrimidin-4(1H)-one]	< 1
CC(C)c1n[nH]c2c(=O)n3c(nc12)C(Cc1ccccc1)N(Cc1ccccc1)CC3 (racemic) [Compound I-45, (±)-5,6-dibenzyl-3-isopropyl-5,6,7,8-tetrahydropyrazino[1,2-a]pyrazolo[4,3-d]pyrimidin-10(1H)-one]	> 10
CC(C)n1ncc2c(=O)n3c(nc21)CN(c1ccc(C#N)cc1)CC3 [Compound I-237, 4-(1-Isopropyl-4-oxo-6,7-dihydropyrazino[1,2-a]pyrazolo[3,4-d]pyrimidin-8(1H,4H,9H)-yl)benzonitrile]	< 1
COc1ccccc1N1CCn2c(nc3c(cnn3C3CCCC3)c2=O)C1 [Compound I-96, 1-Cyclopentyl-8-(2-methoxyphenyl)-6,7,8,9-tetrahydropyrazino[1,2-a]pyrazolo[3,4-d]pyrimidin-4(1H)-one]	1 to 10
O=c1c2cnc(C3CCNCC3)n2nc2n1CCN(c1ccc(Cl)cc1)C2 [Compound I-252, 7-(4-Chlorophenyl)-3-(piperidin-4-yl)-8,9-dihydro-6H-imidazo[5,1-f]pyrazino[2,1-c][1,2,4]triazin-11(7H)-one]	1 to 10
CC1c2nc3c(cnn3C3CCCC3)c(=O)n2CCN1Cc1ccc(Cl)cc1 (racemic) [Compound I-117, (±)-8-(4-Chlorobenzyl)-1-cyclopentyl-9-methyl-6,7,8,9-tetrahydropyrazino[1,2-a]pyrazolo[3,4-d]pyrimidin-4(1H)-one]	1 to 10
CN1CCn2c(nc3c(cnn3-c3ccccc3)c2=O)C1Cc1ccccc1 (racemic) [Compound I-26, (±)-9-Benzyl-8-methyl-1-phenyl-6,7,8,9-tetrahydropyrazino[1,2-a]pyrazolo[3,4-d]pyrimidin-4(1H)-one]	> 10
CC1Cn2c(nc3c(cnn3C3CCCC3)c2=O)CN1Cc1ccc(Cl)cc1 (racemic) [Compound I-119, (±)-8-(4-Chlorobenzyl)-1-cyclopentyl-7-methyl-6,7,8,9-tetrahydropyrazino[1,2-a]pyrazolo[3,4-d]pyrimidin-4(1H)-one]	< 1
O=c1c2cnn(C3CCOC3)c2nc2n1CCN(Cc1ccccc1)C2 (racemic) [Compound I-218, (±)-8-Benzyl-1-(tetrahydrofuran-3-yl)-6,7,8,9-tetrahydropyrazino[1,2-a]pyrazolo[3,4-d]pyrimidin-4(1H)-one]	1 to 10
O=c1c2cnc(C3CCOC3)n2nc2n1CCN(Cc1ccc(Cl)cc1)C2 (racemic) [Compound I-233, (±)-7-(4-Chlorobenzyl)-3-(tetrahydrofuran-3-yl)-8,9-dihydro-6H-imidazo[5,1-f]pyrazino[2,1-c][1,2,4]triazin-11(7H)-one]	1 to 10
CC(C)Cn1ncc2c(=O)n3c(nc21)CN(c1ccccc1Cl)CC3 [Compound I-86, 8-(2-Chlorophenyl)-1-isobutyl-6,7,8,9-tetrahydropyrazino[1,2-a]pyrazolo[3,4-d]pyrimidin-4(1H)-one]	1 to 10
CC1Cn2c(nc3c(cnn3C(C)C)c2=O)CN1 (racemic) [Compound I-103, (±)-1-Isopropyl-7-methyl-6,7,8,9-tetrahydropyrazino[1,2-a]pyrazolo[3,4-d]pyrimidin-4(1H)-one]	> 10
CC(C)Cn1ncc2c(=O)n3c(nc21)CN(Cc1ccc(Cl)cc1)CC3 [Compound I-74, 8-(4-Chlorobenzyl)-1-isobutyl-6,7,8,9-tetrahydropyrazino[1,2-a]pyrazolo[3,4-d]pyrimidin-4(1H)-one]	< 1
O=c1c2cnn(C3CCC3)c2nc2n1CCN(c1ccc(Cl)cc1)C2 [Compound I-246, 8-(4-Chlorophenyl)-1-cyclobutyl-6,7,8,9-tetrahydropyrazino[1,2-a]pyrazolo[3,4-d]pyrimidin-4(1H)-one]	1 to 10
CC(C)n1ncc2c(=O)n3c(nc21)CN(c1cccc(Cl)c1)CC3 [Compound I-88, 8-(3-Chlorophenyl)-1-isopropyl-6,7,8,9-tetrahydropyrazino[1,2-a]pyrazolo[3,4-d]pyrimidin-4(1H)-one]	< 1
CC1Cn2c(nc3c(cnn3C(C)C)c2=O)CN1Cc1ccc(Cl)cc1 (racemic) [Compound I-147, (±)-8-(4-Chlorobenzyl)-1-isopropyl-7-methyl-6,7,8,9-tetrahydropyrazino[1,2-a]pyrazolo[3,4-d]pyrimidin-4(1H)-one]	< 1

Second part, the molecule after the results:

IC50 [µM]	SMILES
< 1	Cc1ccc(CN2CCn3c(nc4c(cnn4C4CCCC4)c3=O)C2)cn1 [Compound I-187, 1-Cyclopentyl-8-((6-methylpyridin-3-yl)methyl)-6,7,8,9-tetrahydropyrazino[1,2-a]pyrazolo[3,4-d]pyrimidin-4(1H)-one]
> 10	CC(C)c1nnc2c(=O)n3c(nn12)CN(Cc1ccncc1)CC3 [Compound I-245, 3-Isopropyl-7-(pyridin-4-ylmethyl)-8,9-dihydro-6H-pyrazino[2,1-c][1,2,4]triazolo[3,4-f][1,2,4]triazin-11(7H)-one]
1 to 10	CC(C)Cc1nnc2c(=O)n3c(nn12)CN(Cc1ccccc1)CC3 [Compound I-214, 7-Benzyl-3-isobutyl-8,9-dihydro-6H-pyrazino[2,1-c][1,2,4]triazolo[3,4-f][1,2,4]triazin-11(7H)-one]
< 1	CC(C)c1ncc2c(=O)n3c(nn12)CN(c1ccc(F)cc1)CC3 [Compound I-176, 7-(4-Fluorophenyl)-3-isopropyl-8,9-dihydro-6H-imidazo[5,1-f]pyrazino[2,1-c][1,2,4]triazin-11(7H)-one]
1 to 10	CC(C)c1ncc2c(=O)n3c(nn12)CN(Cc1cnccn1)CC3 [Compound I-204, 3-Isopropyl-7-(pyrazin-2-ylmethyl)-8,9-dihydro-6H-imidazo[5,1-f]pyrazino[2,1-c][1,2,4]triazin-11(7H)-one]
1 to 10	Cc1ccc(CN2CCn3c(nn4c(C(C)C)ncc4c3=O)C2)cn1 [Compound I-188, 3-Isopropyl-7-((6-methylpyridin-3-yl)methyl)-8,9-dihydro-6H-imidazo[5,1-f]pyrazino[2,1-c][1,2,4]triazin-11(7H)-one]
1 to 10	Cc1ncc(CN2CCn3c(nn4c(C(C)C)ncc4c3=O)C2)cn1 [Compound I-196, 3-Isopropyl-7-((2-methylpyrimidin-5-yl)methyl)-8,9-dihydro-6H-imidazo[5,1-f]pyrazino[2,1-c][1,2,4]triazin-11(7H)-one]
< 1	COc1ccc(CN2CCn3c(nn4c(C(C)C)ncc4c3=O)C2)cc1 [Compound I-178, 3-Isopropyl-7-(4-methoxybenzyl)-8,9-dihydro-6H-imidazo[5,1-f]pyrazino[2,1-c][1,2,4]triazin-11(7H)-one]
1 to 10	COc1ccc(CN2CCn3c(nn4c(C(C)C)nnc4c3=O)C2)cc1 [Compound I-222, 3-Isopropyl-7-(4-methoxybenzyl)-8,9-dihydro-6H-pyrazino[2,1-c][1,2,4]triazolo[3,4-f][1,2,4]triazin-11(7H)-one]
